# Patent US9289381B2, “Stabilization and storage of biological pharmaceutical compositions” (The University of North Carolina at Charlotte, priority 2009, dated 2016)
# Values joined by “and” are separate entries in the source; they are usually repeats but may differ in a detail not shown here. Equal values may be shown once. Read-outs that look alike come from different tables or passages of the source.
# Columns and labels:
# [1] = Osmolality by vapor pressure osmometer, osmotic coefficient; format: physicochemical
# [2] = system: J774 murine macrophage cell line
# [3] = system: J774 murine macrophage cell line; test: cells; details: Mus musculus, J774, 48 h
# [4] = Yoshizawa-Fujita 2007; cited from earlier work
# [5] = system: B16-F10 melanoma cells
# [6] = system: mouse splenocytes; details: 24 h; for concentration with cytotoxicity (viability diminishes): splenocytes, medium without added buffer
# [7] = system: HT-2 cells
# [8] = 350 mg/ml vs 1 mg/ml, aqueous solvent; cited from earlier work
# [9] = cited from earlier work
# [10] = 100 mM solutions in deionized water
# [11] = read-out: Log EC50, μM (Dose Response Model) (converted)
molecule,measurement,setting,value
"CCCCC(CC)COP(=O)(O)OCC(CC)CCCC.CN(C)CCO (stereo not shown) [CBEH, Choline bis(2,ethyl hexyl) phosphate]",osmotic coefficient (φ),"[1]; 100 mM in water, 1 indicates 100% dissociation",0.3
same,"Osmotic Coef., φ in H2O",[1]; [10],0.31
same,anion effect ratio (AR),[2],113
same,shape of dose response,[2],hormetic response
same,"Log EC50, μM (Dose Response Model)","[2]; J774, 48 h, value is the logarithm of EC50, error of last digit in parentheses, equation 1",2.47 (3) μM
same,"Log EC50, μM (Logistic Model)","[2]; J774, 48 h, value is the logarithm of EC50, modified (hormesis) model, equation 2, error of last digit in parentheses",2.43 (3) μM
same,EC50,"[2]; J774, 48 h exposure",0.3 mM
"C[N+](C)(C)CCO.[Cl-] [Choline chloride, reference compound]",EC50,[3],34000 µM
same,EC50,[3]; [11],33900 µM
same,"Osmotic Coef., φ in H2O",[1],0.86
same,EC50,[2],33.7 mM
Choline dibutyl phosphate [CDBP],"Osmotic Coef., φ in H2O",[1],0.90
same,osmotic coefficient (φ),[1],0.9
same,EC50,[2],9.1 mM
same,"Log EC50, μM (Dose Response Model)",[2],3.96 (3) μM
same,anion effect ratio (AR),[2],3.7
"C[N+](C)(C)CCO.O=P([O-])(O)O [CDHP, choline dihydrogen phosphate]",thermal stability by thermal gravimetric analysis,[4],up to 200 °C
same,concentration range with no cytotoxic activity detected,"[5]; buffered medium ([…] (w/v) sodium bicarbonate), 24 h",0 to 8e+07 nM
same,concentration not cytotoxic,[5]; final culture medium concentration,1000 to 30000 µM
same,cytotoxic activity,"[5]; up to 80 mM C-DHP, DMEM F12 complete medium, 24 h, not buffered",doesn't demonstrate any significant cytotoxic activity
same,concentration range with no cytotoxic activity detected,[6]; buffered medium ([…] (w/v) sodium bicarbonate),0 to 8e+07 nM
same,concentration with cytotoxicity (viability diminishes),[6],> 35000 µM and > 40000 µM
same,concentration with cytotoxicity (viability diminishes),[6]; listed as Choline-DHP,> 30000 µM
same,EC50,[3],20000 µM
same,EC50,[3]; [11],20400 µM
same,EC50,"[3]; read-out: Log EC50, μM (Logistic Model) (converted)",19100 µM
same,cytotoxic effect toward HT-2 lymphocytes,[7],no immediate cytotoxic effect
same,concentration range not cytotoxic,[7]; mouse,0 to 3e+07 nM
same,shape of dose response,[2],hormetic response
same,anion effect ratio (AR),"[2]; mouse, pH 7.53",1.7
fibrinogen,increase of transition temperature at the higher concentration,[8],3 °C
"[Cl-].[Na+] [Sodium chloride, reference compound]","Osmotic Coef., φ in H2O",[1],0.91
same,EC50,[2],63 mM and 62.8 mM
same,"Log EC50, μM (Dose Response Model)",[2],4.8 (1) μM
"cyt C: cytochrome c, protein of earlier literature studies in 80% w/w CDHP",thermal transition midpoint temperature before shift,"[9]; Fujita 2006, 2007",80 C.°
same,concentration dissolved,"[9]; in 80% w/w CDHP (Fujita 2005, 2006)",37000 µg/mL
same,thermal transition midpoint temperature after shift,"[9]; stabilized in CDHP, Fujita 2006, 2007",120 C.°
hemoglobin,increase of transition temperature at the higher concentration,[8],8 °C
"OC[C@H]1O[C@H](O[C@H]2O[C@H](CO)[C@@H](O)[C@H](O)[C@H]2O)[C@H](O)[C@@H](O)[C@@H]1O [Trehalose, reference compound]",EC50,[3],> 100000 µM
same,"Osmotic Coef., φ in H2O",[1]; [10],1.01
